Measurements taken from patent US20260070945A1, “MACROCYCLIC IMMUNOMODULATORS” (Bristol-Myers Squibb Company, priority 2022, published 2026).
*1 amine or outer side, *2 acyl side, *3 side chain or, on linkers, in order; H or OH if unused. Where a SMILES comes first, the peptide text is derived from it. Bridges are numbered along the chain shown (N, C = ends). [ ]: non-standard residue; d: D form. The star is where a group is joined. ξ: configuration not given here. Phe(3-CF3) = N[C@@H](Cc1cccc(C(F)(F)F)c1)C(=O)O; Phe(4-COOH) = N[C@@H](Cc1ccc(C(=O)O)cc1)C(=O)O; Bip = N[C@@H](Cc1ccc(-c2ccccc2)cc1)C(=O)O; NH(CH2)14COOH = O=C(O)CCCCCCCCCCCCCCN*; Phe(3-Me) = Cc1cccc(C[C@H](N)C(=O)O)c1; γGlu = O=C(O)[C@H](CCC(=O)[*:2])N[*:1]; NH(CH2)12COOH = O=C(O)CCCCCCCCCCCCN*; Val(3-OH) = CC(C)(O)[C@H](N)C(=O)O; hArg = N=C(N)NCCCC[C@H](N)C(=O)O; Cha = N[C@@H](CC1CCCCC1)C(=O)O; Ile(3ξ) = CCC(C)[C@H](N)C(=O)O; Thr(3ξ) = CC(O)[C@H](N)C(=O)O; Carboxymethyl = O=C(O)C*; NMeA = CN[C@@H](C)C(=O)O; Nle = CCCC[C@H](N)C(=O)O; Orn = NCCC[C@H](N)C(=O)O; Aun = NCCCCCCCCCCC(=O)O; Dab = NCC[C@H](N)C(=O)O; Abu = CC[C@H](N)C(=O)O; Dap = NC[C@H](N)C(=O)O; AEEA = NCCOCCOCC(=O)O; Piv = CC(C)(C)C(=O)*

Target: T1, PD-1/PD-L1 interaction (PE-labeled human PD-L1-Ig binding to Jurkat cell line over-expressing human PD-1) (Homo sapiens, UniProt Q15116)
T1 construct: expressed in transfected cells; host or cells: Jurkat
Experiment: Jurkat-PD-1 Cell Binding High-Content Screening Assay (CBA)
Settings: Jurkat-hPD-1 cells, PE-labeled PD-L1-Ig 20 nM final; read-out: Jurkat HPD1 PDL1 IC50
How it was run: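 Jurkat cells overexpressing human PD-1 (8×10^3/well, DMEM + 10% FCS) preincubated with compound 2 h at 37 °C, then PE-labelled human PD-L1-Ig (20 nM final) for 1 h. Cells fixed in paraformaldehyde with Hoechst 33342; bound PD-L1 quantified by high-content imaging.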

T1 sequence (Q15116 25-288): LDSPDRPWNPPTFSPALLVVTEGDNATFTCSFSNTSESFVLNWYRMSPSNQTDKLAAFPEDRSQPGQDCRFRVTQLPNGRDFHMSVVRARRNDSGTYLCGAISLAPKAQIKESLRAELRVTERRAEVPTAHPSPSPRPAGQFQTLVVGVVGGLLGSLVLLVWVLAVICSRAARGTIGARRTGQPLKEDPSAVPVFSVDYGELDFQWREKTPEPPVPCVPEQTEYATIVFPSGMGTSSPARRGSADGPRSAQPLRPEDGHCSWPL

| IC50 | SMILES |
| --- | --- |
| 0.0282 µM | Cc1cccc(C[C@@H]2NC(=O)[C@H](CC(=O)O)NC(=O)[C@H](Cc3ccc(OCC(=O)O)cc3)NC(=O)[C@H](CN)NC(=O)CSC[C@@H](C(=O)N[C@@H](CCN)C(=O)NCCCCCCCCCCC(=O)O)NC(=O)[C@H](CCCN)NC(=O)[C@H](C(C)C)NC(=O)[C@H](CC3CCCCC3)NC(=O)[C@H](CCN)NC(=O)[C@@H](CC(C)C)NC(=O)[C@H](C)N(C)C(=O)[C@H](Cc3ccc(O)cc3)NC(=O)[C@H](Cc3ccc(-c4ccccc4)cc3)NC(=O)[C@H](Cc3ccc(O)cc3)NC2=O)c1 [Example 1313] ({CH2CO}-[Dap]Y(Carboxymethyl)D[Phe(3-Me)]Y[Bip]Y[NMeA][dL][Dab][Cha]V[Orn]C[Dab][Aun]-OH; thioether N-14) |
| 0.0118 µM | CC(C)C[C@@H]1NC(=O)[C@H](Cc2c[nH]c3ccccc23)NC(=O)[C@H](CC(=O)O)NC(=O)[C@H](Cc2ccc(OCC(=O)O)cc2)NC(=O)[C@H](Cc2ccc(OCC(=O)O)cc2)NC(=O)CSC[C@@H](C(=O)N[C@@H](CCCN)C(=O)NCCOCCOCC(=O)NCCCCCCCCCCC(=O)O)NC(=O)[C@H](CO)NC(=O)[C@H](C(C)C)NC(=O)[C@H](CC2CCCCC2)NC(=O)[C@H](CCN)NC(=O)[C@@H](CC(C)C)NC(=O)[C@H](C)N(C)C(=O)[C@H](C(C)C)NC(=O)[C@H](Cc2ccc(-c3ccccc3)cc2)NC1=O [Example 2130] ({CH2CO}-Y(Carboxymethyl)Y(Carboxymethyl)DWL[Bip]V[NMeA][dL][Dab][Cha]VSC[Orn][AEEA][Aun]-OH; thioether N-14) |
| 0.109 µM | CCC(C)[C@@H]1NC(=O)[C@H](Cc2ccc(-c3ccccc3)cc2)NC(=O)[C@H](C(C)C)NC(=O)[C@H](Cc2c[nH]c3ccccc23)NC(=O)[C@H](CC(=O)O)NC(=O)[C@H](Cc2ccc(OCC(=O)O)cc2)NC(=O)[C@H](C(C)O)NC(=O)CSC[C@@H](C(=O)N[C@H](CC(N)=O)C(=O)NCCOCCOCC(=O)N[C@@H](CCC(=O)N[C@@H](CCCN)C(=O)NCCCCCCCCCCC(=O)O)C(=O)O)NC(=O)[C@H](CO)NC(=O)[C@H](C(C)C)NC(=O)[C@H](CC(C)C)NC(=O)[C@H](CCN)NC(=O)[C@@H](CC(C)C)NC(=O)[C@H](C)N(C)C1=O (stereo partly drawn) [Example 2051] ({CH2CO}-[Thr(3ξ)]Y(Carboxymethyl)DWV[Bip][Ile(3ξ)][NMeA][dL][Dab]LVSC[dN][AEEA][γGlu][Orn][Aun]-OH; thioether N-14) |
| 0.0619 µM | Cc1cccc(C[C@@H]2NC(=O)[C@H](CC(=O)O)NC(=O)[C@H](Cc3ccc(OCC(=O)O)cc3)NC(=O)[C@H](CCNC(=O)C(C)(C)C)NC(=O)CSC[C@@H](C(=O)N[C@@H](CCN)C(=O)NCCCCCCCCCCC(=O)O)NC(=O)[C@H](CCC(N)=O)NC(=O)[C@H](C(C)C)NC(=O)[C@H](CC3CCCCC3)NC(=O)[C@H](CCN)NC(=O)[C@@H](CC(C)C)NC(=O)[C@H](C)N(C)C(=O)[C@H](Cc3ccc(OCC(=O)O)cc3)NC(=O)[C@H](Cc3ccc(-c4ccccc4)cc3)NC(=O)[C@H](Cc3ccc(C(=O)O)cc3)NC2=O)c1 [Example 1270] ({CH2CO}-[Dab](Piv)Y(Carboxymethyl)D[Phe(3-Me)][Phe(4-COOH)][Bip]Y(Carboxymethyl)[NMeA][dL][Dab][Cha]VQC[Dab][Aun]-OH; thioether N-14) |
| 0.015 µM | Cc1cccc(C[C@@H]2NC(=O)[C@H](CC(=O)O)NC(=O)[C@H](Cc3ccc(OCC(=O)O)cc3)NC(=O)[C@H](CN)NC(=O)CSC[C@@H](C(=O)N[C@@H](CCN)C(=O)NCCCCCCCCCCC(=O)O)NC(=O)[C@H]([C@@H](C)O)NC(=O)[C@H](C(C)C)NC(=O)[C@H](CC3CCCCC3)NC(=O)[C@H](CCN)NC(=O)[C@@H](CC(C)C)NC(=O)[C@H](C)N(C)C(=O)[C@H](Cc3ccc(O)cc3)NC(=O)[C@H](Cc3ccc(-c4ccccc4)cc3)NC(=O)[C@H](C(C)C)NC2=O)c1 [Example 1320] ({CH2CO}-[Dap]Y(Carboxymethyl)D[Phe(3-Me)]V[Bip]Y[NMeA][dL][Dab][Cha]VTC[Dab][Aun]-OH; thioether N-14) |
| 0.0654 µM | CC(C)C[C@@H]1NC(=O)[C@H](Cc2c[nH]c3ccccc23)NC(=O)[C@H](CC(=O)O)NC(=O)[C@H](Cc2ccc(OCC(=O)O)cc2)NC(=O)[C@H](CCCCNC(=N)N)NC(=O)CSC[C@@H](C(=O)N[C@@H](C)C(=O)N[C@@H](CCN)C(=O)NCCCCCCCCCCCCCCC(=O)O)NC(=O)[C@H](CO)NC(=O)[C@H](C(C)C)NC(=O)[C@H](CC2CCCCC2)NC(=O)[C@H](CCN)NC(=O)[C@@H](CC(C)C)NC(=O)[C@H](C)N(C)C(=O)[C@H](C(C)C)NC(=O)[C@H](Cc2ccc(-c3ccccc3)cc2)NC1=O [Example 2002] ({CH2CO}-[hArg]Y(Carboxymethyl)DWL[Bip]V[NMeA][dL][Dab][Cha]VSCA[Dab]-{NH(CH2)14COOH}; thioether N-14) |
| 0.0122 µM | Cc1cccc(C[C@@H]2NC(=O)[C@H](CC(=O)O)NC(=O)[C@H](Cc3ccc(OCC(=O)O)cc3)NC(=O)[C@H](C(C)O)NC(=O)CSC[C@@H](C(=O)N[C@H](CC(N)=O)C(=O)NCCCCCCCCCCC(=O)O)NC(=O)[C@H](C(C)O)NC(=O)[C@H](C(C)C)NC(=O)[C@H](CC3CCCCC3)NC(=O)[C@H](CCN)NC(=O)[C@@H](CC(C)C)NC(=O)[C@H](C)N(C)C(=O)[C@H](CCCCNC(=O)C(C)(C)C)NC(=O)[C@H](Cc3ccc(-c4ccccc4)cc3)NC(=O)[C@H](Cc3ccc(O)cc3)NC2=O)c1 (stereo partly drawn) [Example 2452] ({CH2CO}-[Thr(3ξ)]Y(Carboxymethyl)D[Phe(3-Me)]Y[Bip]K(Piv)[NMeA][dL][Dab][Cha]V[Thr(3ξ)]C[dN][Aun]-OH; thioether N-14) |
| 0.0883 µM | CCCC[C@@H]1NC(=O)CSC[C@@H](C(=O)N[C@@H](CCN)C(=O)NCCOCCOCC(=O)N[C@@H](CCC(=O)NCCOCCOCC(=O)NCCCCCCCCCCCCC(=O)O)C(=O)O)NC(=O)[C@H](CCC(=O)O)NC(=O)[C@H](C(C)C)NC(=O)[C@H](CC2CCCCC2)NC(=O)[C@H](CCN)NC(=O)[C@@H](CC(C)C)NC(=O)[C@H](C)N(C)C(=O)[C@H](Cc2ccc(OCC(=O)O)cc2)NC(=O)[C@H](Cc2ccc(-c3ccccc3)cc2)NC(=O)[C@H](Cc2ccc(OCC(=O)O)cc2)NC(=O)[C@H](Cc2cccc(C)c2)NC(=O)[C@H](CC(=O)O)NC(=O)[C@H](Cc2ccc(OCC(=O)O)cc2)NC1=O [Example 2011] ({CH2CO}-[Nle]Y(Carboxymethyl)D[Phe(3-Me)]Y(Carboxymethyl)[Bip]Y(Carboxymethyl)[NMeA][dL][Dab][Cha]VEC[Dab][AEEA][γGlu][AEEA]-{NH(CH2)12COOH}; thioether N-14) |

Same assay, conditions: PE-labeled PD-L1-Ig 20 nM final, Jurkat-hPD-1 cells; read-out: Jurkat HPD1 PDL1 IC50

| IC50 | SMILES |
| --- | --- |
| 0.0453 µM | CC[C@@H]1NC(=O)CSC[C@@H](C(=O)N[C@@H](CCN)C(=O)NCCCCCCCCCCCCC(=O)O)NC(=O)[C@H](CO)NC(=O)[C@H](C(C)(C)O)NC(=O)[C@H](CC2CCCCC2)NC(=O)[C@H](CCN)NC(=O)[C@@H](CC(C)C)NC(=O)[C@H](C)N(C)C(=O)[C@H](Cc2ccc(C(=O)O)cc2)NC(=O)[C@H](Cc2ccc(-c3ccccc3)cc2)NC(=O)[C@H](Cc2ccc(C(=O)O)cc2)NC(=O)[C@H](Cc2cccc(C(F)(F)F)c2)NC(=O)[C@H](CC(=O)O)NC(=O)[C@H](Cc2ccc(C(=O)O)cc2)NC1=O [Example 2569] ({CH2CO}-[Abu][Phe(4-COOH)]D[Phe(3-CF3)][Phe(4-COOH)][Bip][Phe(4-COOH)][NMeA][dL][Dab][Cha][Val(3-OH)]SC[Dab]-{NH(CH2)12COOH}; thioether N-14) |
| 0.207 µM | CCC(C)[C@@H]1NC(=O)[C@H](Cc2ccc(-c3ccccc3)cc2)NC(=O)[C@H](C(C)C)NC(=O)[C@H](Cc2c[nH]c3ccccc23)NC(=O)[C@H](CC(=O)O)NC(=O)[C@H](Cc2ccc(C(=O)O)cc2)NC(=O)[C@H](Cc2cnc[nH]2)NC(=O)CSC[C@@H](C(=O)N[C@@H](CCN)C(=O)NCCOCCOCC(=O)N[C@@H](CCC(=O)NCCCCCCCCCCCCCCC(=O)O)C(=O)O)NC(=O)[C@H](CCC(=O)O)NC(=O)[C@H](C(C)(C)O)NC(=O)[C@H](CC2CCCCC2)NC(=O)[C@H](CCN)NC(=O)[C@@H](CC(C)C)NC(=O)[C@H](C)N(C)C1=O (stereo partly drawn) [Example 2633] ({CH2CO}-H[Phe(4-COOH)]DWV[Bip][Ile(3ξ)][NMeA][dL][Dab][Cha][Val(3-OH)]EC[Dab][AEEA]E(NH(CH2)14COOH)-OH; thioether N-14) |
| 0.0168 µM | CCC(C)[C@@H]1NC(=O)[C@H](Cc2ccc(-c3ccccc3)cc2)NC(=O)[C@H](C(C)C)NC(=O)[C@H](Cc2c[nH]c3ccccc23)NC(=O)[C@H](CC(=O)O)NC(=O)[C@H](Cc2ccc(OCC(=O)O)cc2)NC(=O)[C@H](Cc2cnc[nH]2)NC(=O)CSC[C@@H](C(=O)N[C@H](C)C(=O)NCCOCCOCC(=O)NCCCCCCCCCCC(=O)O)NC(=O)[C@H](C(C)O)NC(=O)[C@H](C(C)(C)O)NC(=O)[C@H](CC2CCCCC2)NC(=O)[C@H](CCN)NC(=O)[C@@H](CC(C)C)NC(=O)[C@H](C)N(C)C1=O (stereo partly drawn) [Example 2514] ({CH2CO}-HY(Carboxymethyl)DWV[Bip][Ile(3ξ)][NMeA][dL][Dab][Cha][Val(3-OH)][Thr(3ξ)]C[dA][AEEA][Aun]-OH; thioether N-14) |
| 0.0469 µM | CC(=O)NCCCC[C@@H]1NC(=O)[C@H](C(C)(C)O)NC(=O)[C@H](CC2CCCCC2)NC(=O)[C@H](CCN)NC(=O)[C@@H](CC(C)C)NC(=O)[C@H](C)N(C)C(=O)[C@H](CCC(N)=O)NC(=O)[C@H](Cc2ccc(-c3ccccc3)cc2)NC(=O)[C@H](Cc2ccc(C(=O)O)cc2)NC(=O)[C@H](Cc2cccc(C)c2)NC(=O)[C@H](CC(=O)O)NC(=O)[C@H](Cc2ccc(OCC(=O)O)cc2)NC(=O)[C@H](Cc2ccc(OCC(=O)O)cc2)NC(=O)CSC[C@@H](C(=O)N[C@@H](CCN)C(=O)NCCOCCOCC(=O)N[C@@H](CCC(=O)NCCCCCCCCCCCCCCC(=O)O)C(=O)O)NC1=O [Example 2577] ({CH2CO}-Y(Carboxymethyl)Y(Carboxymethyl)D[Phe(3-Me)][Phe(4-COOH)][Bip]Q[NMeA][dL][Dab][Cha][Val(3-OH)]K(Ac)C[Dab][AEEA]E(NH(CH2)14COOH)-OH; thioether N-14) |
